# Source: patent publication EP3959200B1, “NEW TRIAZOLE AND TRIAZOLOTHIADIAZINE DERIVATIVES EXERTING CYTOTOXIC AND APOPTOTIC EFFECTS ON A549 CELLS THROUGH AKT INHIBITION” (Anadolu Universitesi, priority 2020, dated 2022)
# How the values were obtained:
# [1] = test system: human lung adenocarcinoma (A549); details: cited from earlier work
# [2] = test system: breast adenocarcinoma (MCF-7); details: cited from earlier work
# [3] = test system: ovarian carcinoma (SKOV3); details: cited from earlier work
# K562 cell line = details: cited from earlier work
# [4] = test system: kidney cancer (OU-31) cell line; design: concentration or dose not given beside the values; details: cited from earlier work
# colon carcinoma (HCT116) = details: HCT116, MTT; read-out: LC50 (the source's name); cited from earlier work
# [5] = test system: breast adenocarcinoma (MCF-7); details: MCF-7, MTT; read-out: LC50 (the source's name); cited from earlier work
# [6] = test system: lung cancer (H-157) cell line; details: cited from earlier work
# [7] = test system: kidney fibroblast (BHK-21) cells; details: cited from earlier work
# [8] = test system: A549 human lung adenocarcinoma cells; test: MTT cytotoxicity assay; assay type: cell-based; details: for IC50: Homo sapiens, A549, read-out: IC50 values A549 cell line; for SI values: SI= IC50 for NIH/3T3 cell line / IC50 for A549 cell line
# Protocol: (§1) In order to be used from this stock, the concentrations ranging from 0.12 to 500 µg/mL (with the highest DMSO ratio of 0.1%) were prepared.
# A549 human lung adenocarcinoma cells (ATCC® CCL-185™) were grown in RPMI 1640 medium supplemented with 10% fetal bovine serum, 1% penicillin/streptomycin, in an incubator with carbon dioxide, in a culture medium at 37°C at 95% relative humidity.
# (§2) MTT protocol was applied to determine cell viability. […] At the end of the incubation period, 20 µL of MTT dye (5 mg/mL) was added into each well, and the cells were incubated for an additional 4 hours at 37°C. After this process, MTT dye was removed from the cells, 200 µL of DMSO was added to each well and left to incubate for 10 minutes. Color change was detected at 540 nm in the ELx808-IU Bio-Tek plate reader. Inhibition% values were determined for each concentration of compounds. Inhibitory concentration 50 (IC50) values of the compounds were calculated by drawing a dose-response curve with their concentrations against these values. All experiments were carried out in triplicate. The results were given as mean±standard deviation. Inhibition% = 100−[(ODtest compound−ODblank/ODsolvent control−ODblank)×100] [formula]
# Selective index (SI) values were determined using the following formula. SI […] IC50 for NIH/3T3 cell line/IC50 for A549 cell line [formula]
# A549 cells = test: FITC Annexin V/PI apoptosis detection by flow cytometry; assay type: cell-based, human; details: for Early apoptotic cells % / Late apoptotic cells % / Necrosis % / apoptotic activity / Viable cells%: at IC50 concentrations; for apoptotic activity: early plus late apoptotic cells; for apoptosis induction: flow cytometry, result in words
# Protocol: The cells incubated with the compounds were centrifuged at 400 × g for 5 minutes in labeled tubes and washed twice with 1xPBS. Then, the cells were suspended in 1×Annexin-V binding solution at 1×10^6 cells/mL and 100 µL of this cell solution was taken and transferred to tubes. The cells were treated with 5 µL Annexin V FITC and 5 µL of propidium iodide (PI) dyes. Then, the cells were kept at room temperature in the dark for 15 minutes to allow the dye to bind. 400 µL of 1×Annexin-V binding cell solution was transferred to flow cytometry tubes and the amount of early and late apoptotic cells was determined relative to the positive control using the BD FACSAria flow cytometer FACSDiva version 6.1.1 software.
# Akt = Akt activity assay (Akt colorimetric in cell ELISA); assay type: cell-based, human; details: for Inhibition % / IC50 value (Akt inhibitory effects): 24 hours; for Akt inhibitory effects: result in words
# Protocol: Briefly, the media was removed from the wells and 100 µL of 4% formaldehyde was added. The plate was incubated for 15 minutes in a fume hood. Formaldehyde was removed and the plate was washed twice with 1X […] solution (TBS) to 100 µL/well. 1X TBS was removed and 100 µL of 1X permeabilization buffer was added to each well and left at room temperature for 15 minutes. After removing the 1X permeabilization buffer, the wells were washed once with 100 µL of 1X TBS. 1X TBS was removed and 100 µL of the quenching solution was added to the wells and left at room temperature for 20 minutes. Then, this solution was removed. The plate was washed once with 1X TBS, 100 µL of blocking buffer was added to the wells and left at room temperature for 30 minutes. At the end of this period, the blocking buffer was removed and 50 µL of primary antibody was added to the wells. The plate was closed with a sealer and incubated overnight at 4°C. The primary antibody was removed and plate wells were washed three times with 100 µL of wash buffer. After removing the wash buffer, 100 µL of diluted horseradish peroxidase (HRP) conjugate was added to the wells. It was incubated for 30 minutes at room temperature. After removing this conjugate, 100 µL of 3,3',5,5'-tetramethylbenzidine (TMB) stop solution was added and absorbance was measured at 450 nm for 30 minutes. The experiment was carried out in triplicate. The values of the blank wells were subtracted from the values of the untreated control and treated cells. The Akt activity% was determined as the relative absorbance of treated versus untreated control cells.
# [9] = test system: NIH/3T3 mouse embryonic fibroblast cells; test: MTT cytotoxicity assay; assay type: cell-based; details: Mus musculus, NIH3T3, 24 hours, read-out: IC50 values NIH/3T3 cell line
# Protocol: as §1
# NIH/3T3 mouse embryonic fibroblast cells (ATCC® CRL-1658™) were grown in DMEM medium supplemented with 10% fetal bovine serum, 1% penicillin/streptomycin, in an incubator with carbon dioxide, in a culture medium at 37°C at 95% relative humidity.
# as §2
# [10] = test system: human epithelial cervical carcinoma (HeLa) cells; details: MTT; cited from earlier work
smiles,measurement,setting,value
COc1cc([C@@H]2c3cc4c(cc3[C@@H](O[C@@H]3O[C@@H]5CO[C@@H](C)O[C@H]5[C@H](O)[C@H]3O)[C@H]3COC(=O)[C@H]23)OCO4)cc(OC)c1O [etoposide],IC50,[1],2990 ± 220 nM
same,IC50,[2],1890 ± 160 nM
same,IC50,[3],2300 ± 120 nM
"Cc1ccccc1NCn1nc(C23CC4CC(CC(C4)C2)C3)[nH]c1=S [5-(adamantan-1-yl)-2-[(o-tolylamino)methyl]-2,4-dihydro-3H-1,2,4-triazole-3-thione]",IC50,K562 cell line,25.4 ± 0.89 µM
"O=C(CSc1nnc2n1N=C(c1ccc(Br)cc1)CS2)c1ccc(Br)cc1 [1-(4-bromophenyl)-2-((6-(4-bromophenyl)-7H-[1,2,4]triazolo[3,4-b][1,3,4]thiadiazine-3-yl)thio)ethanone]",growth,[4],46.76%
same,inhibition,[4],53.24%
"S=C(Nc1ccc(Oc2ccccc2)cc1)Nc1nc(-c2nnc(S)n2-c2ccc(Oc3ccccc3)cc2)cs1 [1-[4-(5-Mercapto-4-(4-phenoxyphenyl-4H-1,2,4-triazole-3-yl)thiazole-2-yl]-3-(4-phenoxyphenyl)thiourea]",CC50,colon carcinoma (HCT116),23.5 µM
same,CC50,[5],17.4 µM
"COc1cc(-c2nnc3n2N=C(c2ccc(C)cc2)CS3)cc(OC)c1OC [6-(p-tolyl)-3-(3,4,5-trimethoxyphenyl)-7H-[1,2,4]triazolo[3,4-b][1,3,4]thiadiazine]",IC50,[1],600 ± 20 nM
same,IC50,[2],2750 ± 50 nM
same,IC50,[3],3430 ± 330 nM
"O=c1oc2ccccc2cc1-c1nnc2n1N=C(c1ccc(-c3ccccc3)cc1)CS2 [3-(6-(Biphenyl-4-yl)-7H-[1,2,4]triazolo[3,4-b][1,3,4]-thiadiazine-3-yl)-2H-chromen-2-one]",IC50,[6],1010 ± 120 nM
"COc1cccc(C2=Nn3c(nnc3-c3ccncc3)SC2)c1 [6-(3-methoxyphenyl)-3-(pyridine-4-yl)-7H-[1,2,4]triazolo[3,4-b][1,3,4]thiadiazine]",inhibition,[7],73.3%
"N.N.[Cl][Pt][Cl] [Cisplatin, reference compound]",IC50 values A549 cell line,"[8]; MTT, 24 hours",11.50 ± 0.71 µg/mL
same,Early apoptotic cells %,A549 cells,1.8%
same,Late apoptotic cells %,A549 cells,5.8%
same,Necrosis %,A549 cells,7.0%
same,apoptotic activity,A549 cells,7.6%
same,Inhibition %,Akt; 5.75 µg/mL,40.70±1.62%
same,Inhibition %,Akt; 11.50 µg/mL,97.89±0.86%
same,IC50 value (Akt inhibitory effects),Akt,7.00 ± 0.50 µg/mL
same,IC50,K562 cell line,5.45 ± 0.18 µM
same,IC50,[6],1310 ± 30 nM
"Cc1ccc2nc(NC(=O)CSc3nnc(CCc4cccnc4)n3N)sc2c1 [Compound 3f, 2-((4-Amino-5-(2-(pyridine-3-yl)ethyl)-4H-1,2,4-triazole-3-yl)thio)-N-(6-methylbenzothiazole-2-yl)acetamide]",IC50,"[8]; MTT, 24 hours",6.5 ± 0.5 µg/mL
same,SI values,[8],>76.92
same,IC50,[9],> 500 µg/mL
same,Early apoptotic cells %,A549 cells,1.9%
same,Late apoptotic cells %,A549 cells,7.7%
same,Necrosis %,A549 cells,5.8%
same,Viable cells%,A549 cells,84.6%
same,apoptotic activity,A549 cells,9.6%
same,apoptosis induction,A549 cells,induce apoptosis
same,Inhibition %,Akt; 3.25 µg/mL,37.59±9.46%
same,Inhibition %,Akt; 6.50 µg/mL,40.29±11.27%
same,Akt inhibitory effects,Akt,did not show significant Akt inhibitory effects
"Fc1ccccc1NCn1nc(C23CC4CC(CC(C4)C2)C3)[nH]c1=S [5-(adamantan-1-yl)-2-[((2-fluorophenyl)amino)methyl]-2,4-dihydro-3H-1,2,4-triazole-3-thione]",IC50,K562 cell line,27.7 ± 2.46 µM
"Fc1ccc(C2=Nn3c(CCc4cccnc4)nnc3SC2)cc1 [Compound 2c, 6-(4-fluorophenyl)-3-(2-(pyridine-3-yl)ethyl)-7H-[1,2,4]triazolo[3,4-b][1,3,4]thiadiazine]",IC50,"[8]; MTT, 24 hours",11.8 ± 2.25 µg/mL
same,SI values,[8],>42.27
same,IC50,[9],> 500 µg/mL
same,Early apoptotic cells %,A549 cells,1.8%
same,Late apoptotic cells %,A549 cells,6.0%
same,Necrosis %,A549 cells,4.6%
same,Viable cells%,A549 cells,87.6%
same,apoptotic activity,A549 cells,7.8%
same,apoptosis induction,A549 cells,induce apoptosis
same,Inhibition %,Akt; 2.95 µg/mL,54.17±26.41%
same,Inhibition %,Akt; 5.92 µg/mL,73.98±8.55%
same,Inhibition %,Akt; 11.83 µg/mL,82.60±2.88%
same,IC50 value (Akt inhibitory effects),Akt,2.95 ± 0.05 µg/mL
"S=c1[nH]c(C23CC4CC(CC(C4)C2)C3)nn1CNc1ccccc1Cl [5-(adamantan-1-yl)-2-[((2-chlorophenyl)amino)methyl]-2,4-dihydro-3H-1,2,4-triazole-3-thione]",IC50,K562 cell line,27.1 ± 5.35 µM
"Nn1c(CCc2cccnc2)nnc1SCC(=O)Nc1nccs1 [Compound 3a, 2-((4-Amino-5-(2-(pyridine-3-yl)ethyl)-4H-1,2,4-triazole-3-yl)thio)-N-(thiazole-2-yl)acetamide]",IC50,"[8]; MTT, 24 hours",0.48 ± 0.04 µg/mL
same,SI values,[8],430.54
same,IC50,[9],207 ± 11.6 µg/mL
same,Early apoptotic cells %,A549 cells,0.4%
same,Late apoptotic cells %,A549 cells,3.1%
same,Necrosis %,A549 cells,5.6%
same,Viable cells%,A549 cells,91.0%
same,Inhibition %,Akt; 0.48 µg/mL,54.76±5.33%
same,Akt inhibitory effects,Akt,did not show significant Akt inhibitory effects
"O=C(CSc1nnc2n1N=C(c1ccc(F)cc1)CS2)c1ccc(F)cc1 [1-(4-fluorophenyl)-2-((6-(4-fluorophenyl)-7H-[1,2,4]triazolo[3,4-b][1,3,4]thiadiazine-3-yl)thio)ethanone]",growth,[4],47.42%
same,inhibition,[4],52.58%
"COc1ccc2nc(NC(=O)CSc3nnc(CCc4cccnc4)n3N)sc2c1 [Compound 3g, 2-((4-Amino-5-(2-(pyridine-3-yl)ethyl)-4H-1,2,4-triazole-3-yl)thio)-N-(6-methoxybenzothiazole-2-yl)acetamide]",IC50,"[8]; MTT, 24 hours",0.48 ± 0.03 µg/mL
same,IC50,[9],> 500 µg/mL
same,Early apoptotic cells %,A549 cells,0.9%
same,Late apoptotic cells %,A549 cells,5.5%
same,Necrosis %,A549 cells,9.1%
same,Viable cells%,A549 cells,84.5%
same,apoptosis induction,A549 cells,induce apoptosis
same,Inhibition %,Akt; 1.95 µg/mL,26.42±4.59%
same,Inhibition %,Akt; 3.90 µg/mL,88.87±5.31%
same,IC50 value (Akt inhibitory effects),Akt,2.60 ± 0.10 µg/mL
"Cc1ccc(C2=Nn3c(nnc3-c3ccncc3)SC2)cc1 [3-(pyridine-4-yl)-6-(p-tolyl)-7H-[1,2,4]triazolo[3,4-b][1,3,4]thiadiazine]",inhibition,[7],72.6%
"CS(=O)(=O)c1ccc(Cc2n[nH]c(=S)n2N=Cc2c(F)cccc2Cl)cc1 [4-{ [(2-chloro-6-fluorophenyl)methylene]amino}-5-[4-(methylsulfonyl)benzyl]-2,4-dihydro-3H-1,2,4-triazole-3-thione]",EC50,[10],25 µM
